Data published in patent US20220195432A9 (priority 2020, published 2022).

Test system: SARS-CoV2
Assay: SARS-CoV2 infection of human ACE2 mice, paquinimod nasal drop group versus control
Assay type: in vivo
Conditions: human ACE2 mice, paquinimod nasal drop group compared with control group, FIG. 17

`CCc1cccc2c1c(O)c(C(=O)N(CC)c1ccccc1)c(=O)n2C` [paquinimod] was tested, and the “resistance to SRAS-CoV2” value was “significantly more resistant”.
